Assay results published in PubChem BioAssay (NCI).
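Tested at 5 concentrations; 48 h exposure; 96-well plates; endpoints linearly interpolated, else capped at highest concentration. GI50 marks 50% less growth. Definition used: TGI = concentration required for complete inhibition of growth.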

Experiments:
Experiment in all cases: NCI-60 cell line screen, 48 h
LOX IMVI melanoma = system: LOX IMVI melanoma
SN12C renal = system: SN12C renal
SK-MEL-28 melanoma = system: SK-MEL-28 melanoma
SR leukemia = system: SR leukemia
HOP-62 NSCLC = system: HOP-62 NSCLC
DLD-1 colon = system: DLD-1 colon
SF-295 CNS = system: SF-295 CNS
HCT-15 colon = system: HCT-15 colon
MCF7 breast = system: MCF7 breast

Compound | TGI (LOX IMVI melanoma) [µM] | TGI (SN12C renal) [µM] | TGI (SK-MEL-28 melanoma) [µM] | TGI (SR leukemia) [µM] | TGI (HOP-62 NSCLC) [µM] | TGI (DLD-1 colon) [µM] | TGI (SF-295 CNS) [µM] | TGI (HCT-15 colon) [µM] | TGI (MCF7 breast) [µM] | GI50 (LOX IMVI melanoma) [µM] | GI50 (MCF7 breast) [µM] | GI50 (SN12C renal) [µM] | GI50 (SK-MEL-28 melanoma) [µM] | GI50 (HCT-15 colon) [µM] | GI50 (SR leukemia) [µM] | GI50 (HOP-62 NSCLC) [µM] | GI50 (SF-295 CNS) [µM] | GI50 (DLD-1 colon) [µM]
COC(=O)N/N=C(\C(=O)Nc1cccc([N+](=O)[O-])c1)c1nc2ccc([N+](=O)[O-])cc2[nH]c1=O | > 100 | > 100 | > 100 | > 100 | 66.5 | > 100 | > 100 | – | – | – | – | – | – | – | – | – | – | –
CSc1nc2c(nc(N)n2C2OC(COC(C)=O)C(OC(C)=O)C(OC(C)=O)C2OC(C)=O)c(=O)n1C (centres undefined) | > 100 | > 100 | – | – | > 100 | > 100 | > 100 | > 100 | – | – | – | – | – | – | – | – | – | –
N#CC1(Nc2ccc(-c3ccc(NC4(C#N)CCCC4)cc3)cc2)CCCC1 | > 100 | > 100 | > 100 | > 100 | > 100 | – | > 100 | > 100 | > 100 | – | – | – | – | – | – | – | – | –
O=C1C=CC(=Nc2ccccc2)c2ccccc21 | 16.9 | 25.7 | 42 | 37.1 | 25.3 | – | 21.1 | 24.5 | 21.4 | – | – | – | – | – | – | – | – | –
NCCCn1c2c(c3ccc([N+](=O)[O-])cc3c1=O)C(=O)c1cc(-c3ccccc3)ccc1-2 | 2.59 | 2.34 | 3.13 | 0.46 | 1.46 | – | 3.45 | 0.365 | 1.32 | 0.916 | 0.357 | 0.824 | 1.51 | 0.187 | 0.183 | 0.406 | 1.79 | –
CC1=C(C(=O)Nc2ccc3[nH]ncc3c2)C(c2ccc(Cl)c(Cl)c2)CC(=O)N1 (centres undefined) | > 25 | > 25 | > 25 | > 25 | > 25 | – | > 25 | > 25 | > 25 | > 22.3 | > 24.1 | > 25 | > 25 | > 25 | > 25 | 17 | > 19.5 | –
c1ccc(CN2CCC3(CC2)SSC2(CCN(Cc4ccccc4)CC2)SS3)cc1 | > 100 | > 100 | > 100 | > 100 | > 100 | – | > 100 | > 100 | > 100 | – | – | – | – | – | – | – | – | –
CC(=O)[CH-]C(=O)c1ccccc1.CC(=O)[CH-]C(=O)c1ccccc1.CC1(C)OCC(C2OC3OC(C)(C)OC3C2[O-])O1.CC1(C)OCC(C2OC3OC(C)(C)OC3C2[O-])O1.[Ti+4] (centres undefined) | 34.2 | 43.4 | 29.9 | – | 36.2 | 52.5 | 30.8 | 46.5 | – | 13.7 | – | 17.7 | 14 | 15.4 | – | 17.9 | 13.8 | 18.5
COc1cc2oc(-c3ccc(O)cc3O)c(CC=C(C)C)c(=O)c2c(O)c1/C=C/C(C)C | 3.32 | 3.35 | 13.9 | 4.44 | 5.93 | – | 12.3 | 10.3 | 7.56 | – | – | – | – | – | – | – | – | –
CCOc1ccc2c(C)cc(=O)oc2c1 | > 100 | > 100 | > 100 | > 100 | > 100 | – | > 100 | > 100 | > 100 | – | – | – | – | – | – | – | – | –
O=c1c2c(c3ccccc3n1-c1ccccc1)NC(=S)NC2c1ccc(Cl)cc1 (centres undefined) | 33.4 | > 100 | 32.5 | > 100 | 56.3 | – | 7.16 | 26.8 | > 100 | 2.59 | 4.75 | 3.83 | 5.73 | 2.1 | 4.76 | 4.83 | 1.34 | –
CC(=O)[CH-]C(=O)c1ccccc1.CC(=O)[CH-]C(=O)c1ccccc1.CC[C@H](/C=C/C(C)[C@H]1CCC2[C@@H]3CC=C4C[C@@H]([O-])CC[C@]4(C)C3CC[C@@]21C)C(C)C.CC[O-].[Ti+4] (some centres undefined) | > 100 | > 100 | > 100 | – | > 100 | > 100 | > 100 | > 100 | – | > 100 | – | > 100 | > 100 | > 100 | – | > 100 | > 100 | > 100
O=S(=O)(c1ccc(Br)cc1)N1CCN(S(=O)(=O)c2ccc(Br)cc2)CC1 | > 100 | > 100 | > 100 | > 100 | > 100 | – | > 100 | > 100 | > 100 | – | – | – | – | – | – | – | – | –
O=C(CC1(O)C(=O)Nc2ccccc21)c1ccc(F)cc1 (centres undefined) | > 100 | > 100 | > 100 | – | – | > 100 | > 100 | > 100 | – | – | – | – | – | – | – | – | – | –
O=c1c2cccc(F)c2sc2c(N3CCNCC3)nc3ccccc3c12 | 2.81 | 2.72 | 3.35 | 3.35 | 3.1 | – | 3.33 | 2.71 | 2.66 | 1.42 | 1.17 | 1.32 | 1.88 | 1.29 | 1.08 | 1.38 | 1.76 | –
C/C(=N\NS(=O)(=O)c1ccc(C)cc1)c1cc2ccccc2n1C | > 100 | 57.7 | – | > 100 | > 100 | > 100 | > 100 | > 100 | – | – | – | – | – | – | – | – | – | –
COc1cccc(-n2cc(-c3nc(Nc4cc(C)[nH]n4)c4ccccc4n3)nn2)c1 | 12.3 | 12.4 | 13.9 | 13.5 | 8.4 | – | 11 | 9.23 | 14 | 5.15 | 4.76 | 3.04 | 6.05 | 0.228 | 2.03 | 1.64 | 2.88 | –
CN(C)CCC(CCN(C)C)=NOC(=O)c1ccccc1 | – | > 100 | > 100 | – | > 100 | > 100 | > 100 | > 100 | – | – | – | – | – | – | – | – | – | –
O=C(O)C1C2C=CC(C2)C1C(=O)O (centres undefined) | > 100 | > 100 | > 100 | > 100 | > 100 | – | > 100 | > 100 | > 100 | > 100 | > 100 | > 100 | > 100 | > 100 | > 100 | > 100 | > 100 | –
